Measured values as given in US11673878B2, “Benzazepine derivatives” (OTSUKA PHARMACEUTICAL CO., LTD., priority 2017, dated 2023).

What was measured:
[1] = target: T1, rat vasopressin V1a receptor (Rattus norvegicus, UniProt P30560); experiment: Binding inhibition test for rat V1a receptor (3H-AVP, rat hepatic membrane); conditions: inhibition of 3H-AVP binding, rat hepatic membrane V1a receptor fractions, 4° C., 2 hours; read-out: Binding affinity rV1a (IC50)
T1 construct: V1a receptor fractions derived from rat hepatic membrane; from tissue; host or cells: rat liver (hepatic membrane)
Description: (§1) Various compounds were studied in binding affinities for vasopressin receptors with an indicator of binding inhibition of rat vasopressin V1a receptor and vasopressin V2 receptor of ^3H-arginine vasopressin (AVP) (NET800, available from PerkinElmer Inc., Life Sciences).
(1) Binding Inhibition Test for Rat V1a Receptor (rV1aR)
50 μg of V1a receptor fractions derived from rat hepatic membrane were diluted with a reaction solution (100 mM Tris-HCl (pH 8.0), 0.1% BSA, 5 mM MgCl2, 1 mM EDTA) and added to each well of a 96-well plate. A compound was added to each well in various concentrations (0.3 nM to 100 nM), and ^3H-AVP was added thereto in the range of 1 nM to 3 nM. Reactions were carried out at 4° C. for 2 hours on the plate. Via receptor fractions were collected with a 96-well glass filter (Unifilter GF/B) after the reactions and washed with a washing solution (10 mM Tris-HCl (pH 8.0), 5 mM MgCl2, 1 mM EDTA) three times, and then the radioactivity of ^3H-AVP was measured with a scintillation counter.
(§2) ^3H-AVP binding rate in the presence of a compound was calculated by the following equation. Binding rate (%)=(B−NSB)/(TB−NSB)×100 (B: Binding amount of ^3H-AVP in the presence of each compound, NSB: Binding amount of ^3H-AVP in the presence of 1 μM of unlabeled AVP, TB: Binding amount of ^3H-AVP in the absence of 1 μM of unlabeled AVP)

[2] = target: T2, rat vasopressin V2 receptor (Rattus norvegicus, UniProt Q00788); experiment: Binding inhibition test for rat V2 receptor (3H-AVP, rV2R-CHO cells); conditions: inhibition of 3H-AVP binding, 4° C., 2 hours, read-out: Binding affinity rV2 (IC50)
T2 construct: expressed in transfected cells; host or cells: CHO cells (rV2R-CHO)
Description: as §1
(2) Binding Inhibition Test for Rat V2 Receptor (rV2R)
Rat V2 receptor-expressed CHO cells (rV2R—CHO) were incubated on 10% FBS-containing DMEM/F12 in a 24-well plate, and each cell was washed with D-PBS twice. A reaction solution (D-PBS containing 0.1% BSA and 0.05% sodium azide) comprising a compound in various concentrations (0.3 nM to 100 nM) was added to each well, and a certain amount of ^3H-AVP was added thereto (100-fold dilution). Reactions were carried out at 4° C. for 2 hours on the plate. Then, each well was washed with D-PBS twice and 0.1N NaOH was added to each well. The cells were collected, and the radioactivity of ^3H-AVP was measured with a scintillation counter.
as §2

[3] = Metabolic stability test in human liver microsomes; assay type: in vitro ADME; conditions: pH 7.4; human liver microsomes 1 mg/mL, test compound 1 μmol/L, NADPH and NADH, 37° C., n = 4; read-out: CLint (μL/min/mg) mean ± SD
Description: Reaction System and Incubation
According to methods of Obach and Jones, et al. (methods described in R. S. Obach, Drug Metab. Dispos. 1999 (27): 1350-1359 and H. Jones and J. B. Houston, Drug Metab. Dispos. 2004 (32): 973-982), the reaction system shown below was prepared and metabolic stabilities of test compounds (the present compounds and, tolvaptan) were evaluated using the reaction system shown below. Human liver microsomes purchased from Corning Inc. were used. Test compounds were dissolved in DMSO at the concentration of 10 mmol/L and then diluted with acetonitrile to prepare a 100 μmol/L solution for use in the test. The 100 μmol/L solutions were used in the experiment.
Human liver microsome 1 mg/mL
Co-factor (NADPH and NADH) 1 mmol/L each
Magnesium chloride 5 mmol/L
100 mmol/L Potassium phosphate buffer (pH 7.4)
The reaction mixture without co-factors was pre-incubated at 37° C. for 5 minutes, and then the reaction was initiated by the addition of the co-factors. The mixture was incubated for 0, 5, 10, 20, 30, and 60 minutes after the addition of the co-factors. An aliquot of the reaction mixture was removed and added to a methanol solution containing an internal standard (IS) and mixed to terminate the reaction at each predetermined time.
After the reaction was terminated, the mixture was separated by centrifugation and the supernatant was injected into a liquid chromatograph-tandem mass spectrometer (LC-MS/MS) to measure unchanged substances remained in the reaction system. The mass spectrometer was operated in a positive ion mode of the electrospray ionization (ESI) method. Unchanged substances and the IS were detected by multiple reaction monitoring (MRM) transitions using selected precursor and product ions set.
The remaining ratios of test compounds were calculated by the following equation. Remaining ratio=(Peak area ratio of a test compound to IS at t minutes after incubation)÷(Peak area ratio of a test compound to IS at 0 minute)
The slope of X-axis (the incubation time) and Y-axis (logarithm of the remaining ratio) was calculated by a non-linear least square method. Hepatic intrinsic clearance (CLint) was calculated by the following equation. CLint(μL/min/mg)=−(Slope(min^−1))÷1(mg/mL)×1000

[4] = Pharmacokinetics study in mice, single oral dose; assay type: in vivo; conditions: mouse; male ICR mice, single-dose oral administration of 30 mg/kg, plasma
Description: A pharmacokinetics (PK) study was performed using male ICR mice to compare the oral absorption properties of the present compounds with tolvaptan. A test compound was suspended in a 1% hydroxypropyl methylcellulose (HPMC) solution to be adjusted to the concentration of 4.5 mg/mL. The present compounds were used as the forms obtained in the above examples (including the amorphous form) for a test compound, or used after spray drying, if needed.
Male ICR mice (7-week old) were freely fed food and water and weighed on an electronic scale. Then, a test compound was orally administered at the dose of 30 mg/kg […]. After the oral administration, blood was collected from the abdominal vena cava under isoflurane anesthesia using a 1 mL heparinized syringe with a 26 G injection needle. Blood was separated by centrifugation at 4° C., 3000 rpm for 10 minutes to give plasma in a supernatant. The plasma concentration of a test compound was measured by LC-MS/MS.
The following PK parameters were calculated using the mean plasma concentrations of unchanged substances obtained from two animals at each time point.
Cmax: Maximum plasma concentration (μg/mL)
tmax: Time-to-maximum plasma concentration (h)
AUCinf: Area under the plasma concentration-time curve from administration to infinite time (μg h/mL)

T2 sequence (Q00788 whole entry): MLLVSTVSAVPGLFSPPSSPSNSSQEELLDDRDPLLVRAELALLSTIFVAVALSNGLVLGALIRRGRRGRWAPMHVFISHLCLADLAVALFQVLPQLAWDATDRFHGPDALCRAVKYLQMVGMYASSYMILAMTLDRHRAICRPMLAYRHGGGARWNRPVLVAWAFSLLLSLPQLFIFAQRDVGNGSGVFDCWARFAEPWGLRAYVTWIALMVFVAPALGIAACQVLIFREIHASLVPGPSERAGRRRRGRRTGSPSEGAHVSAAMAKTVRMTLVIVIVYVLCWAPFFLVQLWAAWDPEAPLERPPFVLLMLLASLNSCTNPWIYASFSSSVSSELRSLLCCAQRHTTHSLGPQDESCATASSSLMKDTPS
T1 sequence (P30560 whole entry): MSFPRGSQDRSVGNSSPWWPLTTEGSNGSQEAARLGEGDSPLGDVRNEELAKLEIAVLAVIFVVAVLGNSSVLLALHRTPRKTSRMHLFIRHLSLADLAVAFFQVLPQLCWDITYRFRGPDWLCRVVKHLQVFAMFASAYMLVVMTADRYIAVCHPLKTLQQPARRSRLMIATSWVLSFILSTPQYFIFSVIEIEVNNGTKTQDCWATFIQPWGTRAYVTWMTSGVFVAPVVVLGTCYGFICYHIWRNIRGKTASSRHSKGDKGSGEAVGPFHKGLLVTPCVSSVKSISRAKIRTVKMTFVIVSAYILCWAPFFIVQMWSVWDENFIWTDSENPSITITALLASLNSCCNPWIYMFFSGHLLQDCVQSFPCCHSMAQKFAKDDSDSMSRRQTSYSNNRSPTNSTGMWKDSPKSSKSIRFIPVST

O=C(Nc1ccc(C(=O)N2CCC(F)(F)[C@](O)(CO)c3cc(Cl)ccc32)cc1)c1cc(F)ccc1-c1ccccc1F [Example 169, N-{4-[(5R)-7-chloro-4,4-difluoro-5-hydroxy-5-(hydroxymethyl)-2,3,4,5-tetrahydro-1H-1-benzazepine-1-carbonyl]phenyl}-2′,4-difluoro-[1,1′-biphenyl]-2-carboxamide]
IC50 [1]: 1.6 nM | IC50 [2]: 3.3 nM | microsomal CLint at 1 μmol/L [3]: 5.09 ± 0.32 µL/min/mg | AUC(0-inf) [4]: 32200 ng·h/mL | Cmax [4]: 5650 ng/mL | Tmax [4]: 1 h

O=C(Nc1ccc(C(=O)N2CCC(F)(F)[C@](O)(CO)c3cc(Cl)ccc32)cn1)c1cc(F)ccc1Cl [Example 15, 2-chloro-N-{5-[(5R)-7-chloro-4,4-difluoro-5-hydroxy-5-(hydroxymethyl)-2,3,4,5-tetrahydro-1H-1-benzazepine-1-carbonyl]pyridin-2-yl}-5-fluorobenzamide]
IC50 [1]: 2.9 nM | IC50 [2]: 1 nM | microsomal CLint at 1 μmol/L [3]: < 4 µL/min/mg | AUC(0-inf) [4]: 63100 ng·h/mL | Cmax [4]: 6180 ng/mL | Tmax [4]: 1 h

O=C(Nc1ccc(C(=O)N2CCC(F)(F)[C@](O)(CO)c3cc(Cl)ccc32)cc1)c1cc(F)ccc1Cl [Example 23, 2-chloro-N-{4-[(5R)-7-chloro-4,4-difluoro-5-hydroxy-5-(hydroxymethyl)-2,3,4,5-tetrahydro-1H-1-benzazepine-1-carbonyl]phenyl}-5-fluorobenzamide]
IC50 [1]: 2.6 nM | IC50 [2]: 1 nM | microsomal CLint at 1 μmol/L [3]: 1.11 ± 2.21 µL/min/mg | AUC(0-inf) [4]: 71300 ng·h/mL | Cmax [4]: 5420 ng/mL | Tmax [4]: 4 h

O=C(Nc1ccc(C(=O)N2CCC(F)(F)C(O)(CO)c3cc(Cl)ccc32)cn1)c1ccccc1C(F)(F)F (stereo not drawn) [Example 2, N-{5-[7-chloro-4,4-difluoro-5-hydroxy-5-(hydroxymethyl)-2,3,4,5-tetrahydro-1H-1-benzazepine-1-carbonyl]pyridin-2-yl}-2-(trifluoromethyl)benzamide]
IC50 [1]: 3.4 nM | IC50 [2]: 2.1 nM | microsomal CLint at 1 μmol/L [3]: < 4 µL/min/mg | AUC(0-inf) [4]: 95700 ng·h/mL | Cmax [4]: 9230 ng/mL | Tmax [4]: 1 h

O=C(Nc1ccc(C(=O)N2CCC(F)(F)[C@](O)(CO)c3cc(Cl)ccc32)cc1F)c1cc(F)ccc1Cl [Example 24, 2-chloro-N-{4-[(5R)-7-chloro-4,4-difluoro-5-hydroxy-5-(hydroxymethyl)-2,3,4,5-tetrahydro-1H-1-benzazepine-1-carbonyl]-2-fluorophenyl}-5-fluorobenzamide]
IC50 [1]: 2.7 nM | IC50 [2]: 1.5 nM | microsomal CLint at 1 μmol/L [3]: < 4 µL/min/mg | AUC(0-inf) [4]: 44000 ng·h/mL | Cmax [4]: 4080 ng/mL | Tmax [4]: 4 h

O=C(Nc1ccc(C(=O)N2CCC(F)(F)[C@](O)(CO)c3cc(Cl)ccc32)cn1)c1cccnc1C(F)(F)F [Example 66, N-{5-[(5R)-7-chloro-4,4-difluoro-5-hydroxy-5-(hydroxymethyl)-2,3,4,5-tetrahydro-1H-1-benzazepine-1-carbonyl]pyridin-2-yl}-2-(trifluoromethyl)pyridine-3-carboxamide]
IC50 [1]: 21.1 nM | IC50 [2]: 3.5 nM | microsomal CLint at 1 μmol/L [3]: < 4 µL/min/mg | AUC(0-inf) [4]: 38300 ng·h/mL | Cmax [4]: 4550 ng/mL | Tmax [4]: 1 h

COc1cc(C(=O)N2CCC(F)(F)[C@](O)(CO)c3cc(Cl)ccc32)ccc1NC(=O)c1ccc(F)cc1Cl [Example 58, 2-chloro-N-{4-[(5R)-7-chloro-4,4-difluoro-5-hydroxy-5-(hydroxymethyl)-2,3,4,5-tetrahydro-1H-1-benzazepine-1-carbonyl]-2-methoxyphenyl}-4-fluorobenzamide]
IC50 [1]: 9.3 nM | IC50 [2]: 1.3 nM | microsomal CLint at 1 μmol/L [3]: 1.81 ± 2.1 µL/min/mg | AUC(0-inf) [4]: 44900 ng·h/mL | Cmax [4]: 5890 ng/mL | Tmax [4]: 1 h

O=C(Nc1ccc(C(=O)N2CCC(F)(F)C(O)(CO)c3cc(Cl)ccc32)cn1)c1cc(F)ccc1Cl (stereo not drawn) [Example 3, 2-chloro-N-{5-[7-chloro-4,4-difluoro-5-hydroxy-5-(hydroxymethyl)-2,3,4,5-tetrahydro-1H-1-benzazepine-1-carbonyl]pyridin-2-yl}-5-fluorobenzamide]
IC50 [1]: 9.5 nM | IC50 [2]: 2.1 nM | microsomal CLint at 1 μmol/L [3]: < 4 µL/min/mg | AUC(0-inf) [4]: 38900 ng·h/mL | Cmax [4]: 4820 ng/mL | Tmax [4]: 1 h

O=C(Nc1ccc(C(=O)N2CCC(F)(F)[C@](O)(CO)c3cc(Cl)ccc32)cc1)c1cc(F)ccc1C(F)(F)F [Example 127, N-{4-[(5R)-7-chloro-4,4-difluoro-5-hydroxy-5-(hydroxymethyl)-2,3,4,5-tetrahydro-1H-1-benzazepine-1-carbonyl]phenyl}-5-fluoro-2-(trifluoromethyl)benzamide]
IC50 [1]: 7.2 nM | IC50 [2]: 1.8 nM | microsomal CLint at 1 μmol/L [3]: < 4 µL/min/mg | AUC(0-inf) [4]: 93800 ng·h/mL | Cmax [4]: 7950 ng/mL | Tmax [4]: 1 h
